Biological target: ADAMTS4 (Homo sapiens (Human), UniProt O75173)
Experiment: Selectivity assay for ADAMTS-7 modulators: ADAMTS4 (FRET substrate)
Format: biochemical
Conditions: ADAMTS4 (R&D 4307-AD) 50 nM, substrate Dabcyl-EEVKAKVQPY-Glu(Edans)-NH2 1 μM, 120 min, 32° C.
Summary of the method: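 Activity read as rising fluorescence after a FRET substrate is cleaved by human ADAMTS4, with reactions started by substrate addition to wells holding compound or DMSO. Percent inhibition plotted against concentration gave IC50.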

ADAMTS4, sequence (O75173 213-685): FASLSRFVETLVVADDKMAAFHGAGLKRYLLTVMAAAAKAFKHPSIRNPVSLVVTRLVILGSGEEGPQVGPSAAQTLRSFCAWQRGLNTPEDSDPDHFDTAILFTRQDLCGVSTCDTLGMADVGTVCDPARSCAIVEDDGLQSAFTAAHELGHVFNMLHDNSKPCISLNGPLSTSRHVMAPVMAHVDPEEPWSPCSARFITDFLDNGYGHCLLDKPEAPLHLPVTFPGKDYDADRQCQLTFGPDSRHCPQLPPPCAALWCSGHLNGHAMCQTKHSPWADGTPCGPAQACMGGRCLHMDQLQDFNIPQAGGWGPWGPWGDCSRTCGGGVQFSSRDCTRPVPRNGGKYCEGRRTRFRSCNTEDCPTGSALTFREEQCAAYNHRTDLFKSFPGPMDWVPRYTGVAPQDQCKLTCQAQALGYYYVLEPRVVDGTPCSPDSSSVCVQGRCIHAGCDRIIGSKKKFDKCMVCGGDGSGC

Row | Structure (SMILES) | IC50 [µM]
1 | O=C1NC(=O)[C@](CNC(=O)c2ccc(F)cc2-c2ccc(C(F)(F)F)cc2)(C2CC2)N1 [Example 116, N-{[(4R)-4-Cyclopropyl-2,5-Dioxoimidazolidin-4-Yl]Methyl}-5-Fluoro-4′-(Trifluoromethyl)[Biphenyl]-2-Carboxamide] | 12
2 | O=C1NC(=O)[C@](CNC(=O)c2ccc(C(F)(F)F)cc2-c2ccc(C(F)(F)F)cc2)(C2CC2)N1 [Example 117, N-{[(4R)-4-Cyclopropyl-2,5-Dioxoimidazolidin-4-Yl]Methyl}-4′,5-Bis(Trifluoromethyl)[Biphenyl]-2-Carboxamide] | 61
3 | CC(C)c1ccc(-c2ccccc2C(=O)NC[C@@]2(C3CC3)NC(=O)NC2=O)cc1 [Example 118, N-{[(4R)-4-Cyclopropyl-2,5-Dioxoimidazolidin-4-Yl]Methyl}-4′-Isopropyl[Biphenyl]-2-Carboxamide] | 7.6
4 | O=C1NC(=O)[C@](CNC(=O)c2ccccc2-c2ccc(CC(F)(F)F)cc2)(C2CC2)N1 [Example 119, N-{[(4R)-4-Cyclopropyl-2,5-Dioxoimidazolidin-4-Yl]Methyl}-4′-(2,2,2-Trifluoroethyl)[Biphenyl]-2-Carboxamide] | 9.1
5 | CC(C)(c1ccc(-c2ccccc2C(=O)NC[C@@]2(C3CC3)NC(=O)NC2=O)cc1)C(F)(F)F [Example 120, N-{[(4R)-4-Cyclopropyl-2,5-Dioxoimidazolidin-4-Yl]Methyl}-4′-(1,1,1-Trifluoro-2-Methylpropan-2-Yl)[Biphenyl]-2-Carboxamide] | 35
6 | O=C1NC(=O)[C@](CNC(=O)c2cc(F)ccc2-c2ccc(C(F)(F)F)cc2)(C2CC2)N1 [Example 121, N-{[(4R)-4-Cyclopropyl-2,5-Dioxoimidazolidin-4-Yl]Methyl}-4-Fluoro-4′-(Trifluoromethyl)[Biphenyl]-2-Carboxamide] | 5.9
7 | O=C1NC(=O)[C@](CNC(=O)c2ccccc2-c2ccc(C(F)F)cc2)(C2CC2)N1 [Example 122, N-{[(4R)-4-Cyclopropyl-2,5-Dioxoimidazolidin-4-Yl]Methyl}-4′-(Difluoromethyl)[Biphenyl]-2-Carboxamide] | 7.9
8 | CC(C)(C#N)c1ccc(-c2ccccc2C(=O)NC[C@@]2(C3CC3)NC(=O)NC2=O)cc1 [Example 123, 4′-(2-Cyanopropan-2-Yl)-N-{[(4R)-4-Cyclopropyl-2,5-Dioxoimidazolidin-4-Yl]Methyl}[Biphenyl]-2-Carboxamide] | 19
9 | CC(C)(C)c1ccc(-c2cc(F)ccc2C(=O)NC[C@@]2(C3CC3)NC(=O)NC2=O)cc1 [Example 124, 4′-Tert-Butyl-N-{[(4R)-4-Cyclopropyl-2,5-Dioxoimidazolidin-4-Yl]Methyl}-5-Fluoro[Biphenyl]-2-Carboxamide] | 42
10 | CC(F)(F)c1ccc(-c2ccccc2C(=O)NC[C@@]2(C3CC3)NC(=O)NC2=O)cc1 [Example 125, N-{[(4R)-4-Cyclopropyl-2,5-Dioxoimidazolidin-4-Yl]Methyl}-4′-(1,1-Difluoroethyl)[Biphenyl]-2-Carboxamide] | 8.7
11 | O=C1NC(=O)[C@](CNC(=O)c2ccc(F)cc2-c2ccc(Cl)cc2)(C2CC2)N1 [Example 126, 4′-Chloro-N-{[(4R)-4-Cyclopropyl-2,5-Dioxoimidazolidin-4-Yl]Methyl}-5-Fluoro[Biphenyl]-2-Carboxamide] | 11
12 | O=C1NC(=O)[C@](CNC(=O)c2ccccc2-c2ccc(OC(F)F)cc2)(C2CC2)N1 [Example 127, N-{[(4R)-4-Cyclopropyl-2,5-Dioxoimidazolidin-4-Yl]Methyl}-4′-(Difluoromethoxy)[Biphenyl]-2-Carboxamide] | 13
13 | O=C1NC(=O)[C@](CNC(=O)c2ccc(F)cc2-c2ccc(F)cc2)(C2CC2)N1 [Example 128, N-{[(4R)-4-Cyclopropyl-2,5-Dioxoimidazolidin-4-Yl]Methyl}-4′,5-Difluoro[Biphenyl]-2-Carboxamide] | 13

Continued, values first:

Row | IC50 [µM] | Structure (SMILES)
14 | 8.7 | O=C1NC(=O)[C@](CNC(=O)c2ccccc2-c2ccc(F)cc2)(C2CC2)N1 [Example 129, N-{[(4R)-4-Cyclopropyl-2,5-Dioxoimidazolidin-4-Yl]Methyl}-4′-Fluoro[Biphenyl]-2-Carboxamide]
15 | 17.3 | COc1ccc(-c2ccccc2C(=O)NC[C@@]2(C3CC3)NC(=O)NC2=O)cc1 [Example 130, N-{[(4R)-4-Cyclopropyl-2,5-Dioxoimidazolidin-4-Yl]Methyl}-4′-Methoxy[Biphenyl]-2-Carboxamide]
16 | 8.7 | O=C1NC(=O)[C@](CNC(=O)c2ccccc2-c2ccccc2)(C2CC2)N1 [Example 131, N-{[(4R)-4-Cyclopropyl-2,5-Dioxoimidazolidin-4-Yl]Methyl}[Biphenyl]-2-Carboxamide]
17 | 36 | Cc1ccc(-c2ncccc2C(=O)NC[C@@]2(C3CC3)NC(=O)NC2=O)cc1 [Example 132, N-{[(4R)-4-Cyclopropyl-2,5-Dioxoimidazolidin-4-Yl]Methyl}-2-(4-Methylphenyl)Nicotinamide]
18 | 1.3 | Cc1ccc(C(=O)NCC2(c3nccn3C)NC(=O)NC2=O)c(-c2ccc(C3CC3(F)F)cc2)c1 (centres unmarked) [Example 135, 4′-(2,2-Difluorocyclopropyl)-5-Methyl-N-{[4-(1-Methyl-1H-Imidazol-2-Yl)-2,5-Dioxoimidazolidin-4-Yl]Methyl}[1,1′-Biphenyl]-2-Carboxamide]
19 | 7.1 | Cc1ccc(C(=O)NC[C@@]2(C3CC3)NC(=O)NC2=O)c(-c2ccc(C3CC3(F)F)cc2)c1 (stereo partly drawn) [Example 136, N-{[(4R)-4-Cyclopropyl-2,5-Dioxoimidazolidin-4-Yl]Methyl}-4′-(2,2-Difluorocyclopropyl)-5-Methyl[1,1′-Biphenyl]-2-Carboxamide]
20 | 2.1 | Cn1ccnc1C1(CNC(=O)c2cc(F)ccc2-c2ccc(C3CC3(F)F)cc2)NC(=O)NC1=O (centres unmarked) [Example 139, 4′-(2,2-Difluorocyclopropyl)-4-Fluoro-N-{[4-(1-Methyl-1H-Imidazol-2-Yl)-2,5-Dioxoimidazolidin-4-Yl]Methyl}[1,1′-Biphenyl]-2-Carboxamide]
21 | 11 | O=C1NC(=O)[C@](CNC(=O)c2cc(F)ccc2-c2ccc(C3CC3(F)F)cc2)(C2CC2)N1 (stereo partly drawn) [Example 140, N-{[(4R)-4-Cyclopropyl-2,5-Dioxoimidazolidin-4-Yl]Methyl}-4′-(2,2-Difluorocyclopropyl)-4-Fluoro[1,1′-Biphenyl]-2-Carboxamide]
22 | 3.6 | Cn1ccnc1C1(CNC(=O)c2ccc(F)cc2-c2ccc(C3CC3(F)F)cc2)NC(=O)NC1=O (centres unmarked) [Example 141, 4′-(2,2-Difluorocyclopropyl)-5-Fluoro-N-{[4-(1-Methyl-1H-Imidazol-2-Yl)-2,5-Dioxoimidazolidin-4-Yl]Methyl}[1,1′-Biphenyl]-2-Carboxamide]
23 | 18 | O=C1NC(=O)[C@](CNC(=O)c2ccc(F)cc2-c2ccc(C3CC3(F)F)cc2)(C2CC2)N1 (stereo partly drawn) [Example 142, N-{[(4R)-4-Cyclopropyl-2,5-Dioxoimidazolidin-4-Yl]Methyl}-4′-(2,2-Difluorocyclopropyl)-5-Fluoro[1,1′-Biphenyl]-2-Carboxamide]
24 | 4.6 | Cn1ccnc1C1(CNC(=O)c2cc(F)c(F)cc2-c2ccc(C3CC3(F)F)cc2)NC(=O)NC1=O (centres unmarked) [Example 143, 4′-(2,2-Difluorocyclopropyl)-4,5-Difluoro-N-{[4-(1-Methyl-1H-Imidazol-2-Yl)-2,5-Dioxoimidazolidin-4-Yl]Methyl}[1,1′-Biphenyl]-2-Carboxamide]
25 | 25 | O=C1NC(=O)[C@](CNC(=O)c2cc(F)c(F)cc2-c2ccc(C3CC3(F)F)cc2)(C2CC2)N1 (stereo partly drawn) [Example 144, N-{[(4R)-4-Cyclopropyl-2,5-Dioxoimidazolidin-4-Yl]Methyl}-4′-(2,2-Difluorocyclopropyl)-4,5-Difluoro[1,1′-Biphenyl]-2-Carboxamide]
26 | 2.8 | Cc1ccc(C(=O)NC[C@@]2(C3CC3)NC(=O)NC2=O)c(-c2ccc(C(F)(F)F)cc2)c1C [Example 145, N-{[(4R)-4-Cyclopropyl-2,5-Dioxoimidazolidin-4-Yl]Methyl}-5,6-Dimethyl-4′-(Trifluoromethyl)[1,1′-Biphenyl]-2-Carboxamide]
27 | 1.84 | Cn1ccnc1C1(CNC(=O)c2ccccc2-c2ccc(C(F)(F)F)cc2)NC(=O)NC1=O (stereo not drawn) [Example 148, Ent-N-{[4-(1-Methyl-1H-Imidazol-2-Yl)-2,5-Dioxoimidazolidin-4-Yl]Methyl}-4′-(Trifluoromethyl)[Biphenyl]-2-Carboxamide]
28 | 3.05 | Cn1ccnc1C1(CNC(=O)c2ccccc2-c2ccc(C(F)(F)F)nc2)NC(=O)NC1=O (stereo not drawn) [Example 158, Ent-N-{[4-(1-Methyl-1H-Imidazol-2-Yl)-2,5-Dioxoimidazolidin-4-Yl]Methyl}-2-[6-(Trifluoromethyl)Pyridin-3-Yl]Benzamide]
29 | 7.9 | Cc1scnc1C1(CNC(=O)c2ccccc2-c2ccc(C(F)(F)F)nc2)NC(=O)NC1=O (stereo not drawn) [Example 173, Ent-N-{[4-(5-Methyl-1,3-Thiazol-4-Yl)-2,5-Dioxoimidazolidin-4-Yl]Methyl}-2-[6-(Trifluoromethyl)Pyridin-3-Yl]Benzamide]
30 | 16.5 | Cn1nccc1C1(CNC(=O)c2ccccc2-c2ccc(C(F)(F)F)cc2)NC(=O)NC1=O (stereo not drawn) [Example 185, Ent-N-{[4-(1-Methyl-1H-Pyrazol-5-Yl)-2,5-Dioxoimidazolidin-4-Yl]Methyl}-4′-(Trifluoromethyl)[Biphenyl]-2-Carboxamide]
31 | 12 | Cn1nccc1C1(CNC(=O)c2ccccc2-c2ccc(C(F)(F)F)nc2)NC(=O)NC1=O (stereo not drawn) [Example 190, Ent-N-{[4-(1-Methyl-1H-Pyrazol-5-Yl)-2,5-Dioxoimidazolidin-4-Yl]Methyl}-2-[6-(Trifluoromethyl)Pyridin-3-Yl]Benzamide]
32 | 8.9 | Cn1nccc1C1(CNC(=O)c2ccccc2-c2ccc(S(C)(=O)=O)cc2)NC(=O)NC1=O (stereo not drawn) [Example 194, Ent-N-{[4-(1-Methyl-1H-Pyrazol-5-Yl)-2,5-Dioxoimidazolidin-4-Yl]Methyl}-4′-(Methylsulfonyl)[Biphenyl]-2-Carboxamide]
